# Measured values published in publication PMC6720883, “In Vitro Inhibitory Effects of APINACA on Human Major Cytochrome P450, UDP-Glucuronosyltransferase Enzymes, and Drug Transporters” (Molecules, 2019).
# Read-outs that look alike come from different tables or passages of the source.
# Biological target: UGT1A3 (Homo sapiens, UniProt P35503)
# Test: Inhibition of UGT1A3-catalyzed chenodeoxycholic acid 24-acyl-β-glucuronidation in human liver microsomes
# Assay type: in vitro ADME
# Protocol: The inhibitory effect of APINACA and typical UGT inhibitors on UGT1A1, UGT1A3, UGT1A4, UGT1A6, UGT1A9, and UGT2B7 were evaluated following our previous method by LC–MS/MS after incubation of ultrapooled human liver microsomes with a cocktail of UGT substrates [44]. […] The reactions were initiated by adding UDPGA, and the incubation continued for 60 min at 37 °C in a shaking water bath. The reactions were terminated by adding 50 μL of ice-cold acetonitrile containing internal standards (propofol glucuronide for chenodeoxycholic acid 24-acyl-β-glucuronide and mycophenolic acid glucuronide; and meloxicam for SN-38 glucuronide, trifluoperazine glucuronide, N-acetylserotonin β-D-glucuronide, and naloxone 3-β-D-glucuronide). The incubation mixtures were centrifuged at 13,000× g for 8 min at 4 °C. Next, 50 μL of each supernatant of A and B set was mixed, and aliquots (5 μL) were analyzed by LC–MS/MS. All assays were performed in triplicate, and the average values were used in calculations.
# To measure the time-dependent inhibition, human liver microsomes were preincubated with the various concentrations of APINACA (final concentrations of 0.1–100 μM) and UDPGA for 30 min at 37 °C. Next, the reaction mixtures were incubated with UGT probe substrate cocktail sets for 60 min at 37 °C. The control reaction was performed by adding methanol instead of the test compounds.
# UGT1A3, sequence (P35503 29-534): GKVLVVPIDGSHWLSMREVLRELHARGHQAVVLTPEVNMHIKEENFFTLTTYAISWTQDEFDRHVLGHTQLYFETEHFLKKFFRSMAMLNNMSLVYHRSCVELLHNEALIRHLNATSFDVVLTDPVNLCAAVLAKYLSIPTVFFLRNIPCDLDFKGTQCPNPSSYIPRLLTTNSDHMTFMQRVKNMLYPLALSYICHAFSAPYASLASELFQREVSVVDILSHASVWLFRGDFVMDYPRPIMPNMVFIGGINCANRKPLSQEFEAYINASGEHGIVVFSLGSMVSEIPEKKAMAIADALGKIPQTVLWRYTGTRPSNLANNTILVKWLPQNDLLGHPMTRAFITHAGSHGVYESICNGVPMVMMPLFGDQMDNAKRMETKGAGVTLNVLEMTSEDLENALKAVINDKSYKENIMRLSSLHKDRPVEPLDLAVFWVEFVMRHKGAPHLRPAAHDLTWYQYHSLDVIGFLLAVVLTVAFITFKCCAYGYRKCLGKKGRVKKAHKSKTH
structure (smiles),measurement,setting,value
"CCCCCn1nc(C(=O)NC23CC4CC(CC(C4)C2)C3)c2ccccc21 [APINACA, N-(1-adamantyl)-1-pentyl-1H-indazole-3-carboxamide]",IC50,,> 100 µM
same,IC50,"read-out: IC50 UGT1A3 chenodeoxycholic acid glucuronidation, with 30-min preincubation, pooled human liver microsomes, 30-min preincubation with UDPGA (○)",> 100 µM
